Patent US10725049B2, “Methods of detecting and measuring glutamine and analogues thereof, and methods related thereto” (Victoria Link Limited, priority 2013, dated 2020)

B1: BpsA: single module non-ribosomal peptide synthetase from Streptomyces lavendulae, SEQ ID NO:2 (protein, listed as Streptomyces lavendulae)
chain: MTLQETSVLEPTLQGTTTLPGLLAQRVAEHPEAIAVAYRDDKLTFRELASRSAALADYLEHLGVSADDCVGLFVEPSIDLMVGAWGILNAGAAYLPLSPEYPEDRLRYMIENSETKIILAQQRLVSRLRELAPKDVTIVTLRESEAFVRPEGTEAPAARSARPDTLAYVIYTSGSTGKPKGVMIEHRSIVNQLGWLRETYAIDRSKVILQKTPMSFDAAQWEILSPANGATVVMGAPGVYADPEGLIETIVKHNVTTLQCVPTLLQGLIDTEKFPECVSLQQIFSGGEALSRLLAIQTTQEMPGRALINVYGPTETTINSSSFPVDPADLDEGPQSISIGSPVHGTTYHILDKETLKPVGVGEIGELYIGGIQLARGYLHRDDLTAERFLEIELEEGAEPVRLYKTGDLGQWNNDGTVQFAGRADNQVKLRGYRVELDEISLAIENHDWVRNAAVIVKNDGRTGFQNLIACIELSEKEAALMDQGNHGSHHASKKSKLQVKAQLSNPGLRDDAELAARPAFDLEGAEPTPEQRARVFARKTYRFYEGGAVTQADLLGLLGATVTAGYSRKAADLAPAELGQILRWFGQYISEERLLPKYGYASPGALYATQMYFELEGVGGLKPGYYYYQPVRHQLVLISEREATGKATAQIHFIGKKSGIEPVYKNNILEVLEIETGHMVGLFEQILPAYGLDIHDRAYEPAVKDLLDVADEDYYLGTFELVPHAGARDDQAEVYVQTHGGKVAGLPEGQYRYENGELTRFSDDIVLKKHVIAINQSVYQAASFGISVYSRAEEEWLKYITLGKKLQHLMMNGLNLGFMSSGYSSKTGNPLPASRRMDAVLGANGVDSAPMYFFVGGRISDEQIGHEGMREDSVHMRGPAELIRDDLVSFLPDYMIPNRVVVFDRLPLSANGKIDVKALAASDQVNAELVERPFVAPRTETEKEIAAVWEKALRRENASVQDDFFESGGNSLIAVGLVRELNARLGVSLPLQSVLESPTIEKLARRLEREVAQESSRFVRLHAETGKARPVICWPGLGGYPMNLRSLAGEIGLGRSFYGVQSYGINEGETPYETITEMAKKDIEALKEIQPAGPYTLWGYSFGARVAFETAYQLEQAGEKVDNLFLIAPGSPKVRAENGKVWGREASFANRGYTTILFSVFTGTISGPDLDRCLETVTDEASFAEFISELKGIDVDLARRIISVVGQTYEFEYSFHELAERTLQAPISIFKAVGDDYSFLENSSGYSAEPPTVIDLDADHYSLLREDIGELVKHIRYLLGE

Experiments:
BpsA [1] = molecular target: T1, BpsA (Streptomyces lavendulae, UniProt Q1MWN4); test: Relative reaction rate of L-glutamine versus analogue with BpsA; format: biochemical; conditions: L-glutamine faster than an analogue (e.g. L-glycyl glutamine)
Method: Without wishing to be bound by theory, it is believed that BpsA or a related enzyme can be used to measure both L-glutamine and a glutamine analogue (e.g., L-glycyl glutamine) in the same sample. Experiments have shown that L-glutamine reacts much faster with BpsA (˜100-1000 fold) than an analogue. Thus, it would be possible to incubate the sample for a short period (e.g., 2 minutes), remove the blue pigment, and measure the pigment levels to calculate L-glutamine levels. It would then be possible to wait for a further longer period (e.g., 8 hours), and measure the remaining blue pigment to calculate analogue levels (e.g., L-glycyl glutamine). It is expected that there would be little contamination of the glutamine-based product by the analogue-based product based on the enzymatic profile for BpsA.

BpsA [2] = molecular target: T1, BpsA; test: BpsA end-point assay measuring L-glutamine in complex biological media (indigoidine re-solubilised in DMSO, A590); conditions: for Spiked − unspiked (μM L-glutamine +/− 1 std dev): 300 μM spike
Method: For improved accuracy, reproducibility, and robustness, it is generally preferable to use an end-point assay over a kinetic assay. An end-point assay for BpsA was designed and carried out as follows. In these experiments, 40 μL indigoidine-producing reactions were run until all glutamine present was consumed, and then all the indigoidine was solubilised by adding 190 μL of the organosulfur solvent dimethyl sulfoxide (DMSO).
Indigoidine synthesis reactions were initiated by addition of 10 μL of each L-glutamine concentration standard in triplicate. […] The 96 plate was then mixed at 1000 rpm for 10 seconds and incubated at room temperature for 45 minutes to enable complete reaction of all L-glutamine present in each well. After this, 190 μL of DMSO heated to 50° C. was added to each well to solubilise the indigoidine. The 96 well plate was then incubated at room temperature with shaking at 2500 rpm for 10 minutes. […] This yielded a standard curve with an excellent straight line fit (FIG. 4).
For these experiments, standard samples (10 μL per well) were prepared in triplicate in ddH2O as per Example 4 at the following concentrations: 1000 μM, 800 μM, 600 μM, 400 μM, 200 μM, and 0 μM. Alongside these were aliquoted paired triplicate samples (10 μL per well) of the following media: adult bovine serum (purchased from Sigma-Aldrich), human urine, LB, DMEM, and ddH2O. For each medium, one of the two paired triplicate sets was spiked (amended) with 300 μM L-glutamine, while the other was left unspiked. Indigoidine synthesis was initiated by addition of 30 μL reaction mix (as described in Table 4) to each sample-containing well. The 96 well plate was then mixed at 1000 rpm for 10 seconds and incubated at room temperature for one hour, after which 180 μL of DMSO heated to 50° C. was added to each well. The plate was then shaken at 2500 rpm for 10 minutes to fully solubilise the indigoidine.
It was observed that the serum containing wells went immediately cloudy upon addition of DMSO, preventing meaningful A590 readings from being obtained for those samples. In all other cases, a single A590 reading for each well was recorded. For each sample, triplicate A590 values were averaged and this value was used to quantify glutamine levels based on the standard curve generated from the standard samples. With the exception of the ddH2O, it was unknown what the starting concentration of L-glutamine was in each medium being tested. However, the comparison of measured L-glutamine levels in spiked versus unspiked samples for each medium enabled assessment of the accuracy of the BpsA end-point assay in measuring L-glutamine concentrations in that medium.

[3] = BpsA functionality (indigoidine synthesis from L-glutamine) in the presence of DMSO; format: biochemical
Method: In these experiments, samples of 500 μM L-glutamine were prepared in ddH2O amended with DMSO to a final DMSO concentration (v/v) of either 0%, 10%, 20%, 30% or 35%. A master mix with final reagent concentrations as indicated in Table 5 was prepared and dispensed into 18 wells of a fresh 96 well plate at a volume of 20 μL per well.
To test whether full L-glutamine conversion had been achieved in the presence of DMSO, 180 μL of DMSO heated to 50° C. was then added to each well to completely solubilise the indigoidine. The 96 well plate was then incubated at room temperature with shaking at 2500 rpm for 10 minutes. Following this, a single A590 reading was taken and the average of the triplicate values were graphed (FIG. 5B).

[4] = Stability of BpsA over time on storage; format: physicochemical; conditions: 24 weeks
Method: To monitor stability of Bps A over time after storage at these conditions, two BpsA samples were stored, one at 25° C. and one at 4° C. The two samples were then compared to recently purified BpsA. The BpsA stored at 4° C. retained 96% activity and the BpsA stored at 25° C. retained 15% activity after 24 weeks compared to the recently purified BpsA.

Row | Molecule | Reaction rate with BpsA relative to an analogue (BpsA [1]) | Spiked sample measurement (μM L-glutamine +/− 1 std dev) (BpsA [2]; DMEM spiked with 300 μM L-glutamine, standard curve in ddH2O) | Unspiked sample measurement (μM L-glutamine +/− 1 std dev) (BpsA [2]; DMEM) | Spiked − unspiked (μM L-glutamine +/− 1 std dev) (BpsA [2]; DMEM) | Spiked sample measurement (μM L-glutamine +/− 1 std dev) (BpsA [2]; LB spiked with 300 μM L-glutamine, standard curve in ddH2O) | Unspiked sample measurement (μM L-glutamine +/− 1 std dev) (BpsA [2]; LB) | Spiked − unspiked (μM L-glutamine +/− 1 std dev) (BpsA [2]; LB) | Spiked sample measurement (μM L-glutamine +/− 1 std dev) (BpsA [2]; ddH2O spiked with 300 μM L-glutamine) | Spiked − unspiked (μM L-glutamine +/− 1 std dev) (BpsA [2]; ddH2O) | Spiked sample measurement (μM L-glutamine +/− 1 std dev) (BpsA [2]; human urine spiked with 300 μM L-glutamine, standard curve in ddH2O) | Unspiked sample measurement (μM L-glutamine +/− 1 std dev) (BpsA [2]; human urine) | Spiked − unspiked (μM L-glutamine +/− 1 std dev) (BpsA [2]; human urine) | BpsA activity in the presence of DMSO ([3]; 0-35% DMSO v/v, end-point A590 after full solubilisation) | DMSO concentration up to which BpsA retains partial functionality ([3]; 500 μM L-glutamine, DMSO v/v) | Activity retained compared to recently purified BpsA ([4]; stored at 4° C.) | Activity retained compared to recently purified BpsA ([4]; stored at 25° C.)
1 | NC(=O)CC[C@H](N)C(=O)O [L-glutamine] | 100-1000 fold | 427.4 ± 4.6 µM | 20.3 ± 2.7 µM | 407.0 ± 5.4 µM | 377.9 ± 14.1 µM | 49.6 ± 5.3 µM | 328.1 ± 15.2 µM | 319.0 ± 5.4 µM | 319.0 ± 5.4 µM | 295.8 ± 7.1 µM | 71.4 ± 23.6 µM | 224.4 ± 24.9 µM |  |  |  | 
2 | B1 |  |  |  |  |  |  |  |  |  |  |  |  | impaired at all concentrations of DMSO | up to 35% | 96% | 15%
